Reference: US20240059691A1 (KALVISTA PHARMACEUTICALS LIMITED, priority 2020, published 2024)

Columns and labels:
Type in all cases: biochemical
[1] = target: Human Factor XIIa (Homo sapiens (Human), UniProt P00748); test: Determination of FXIIa inhibition (fluorogenic substrate H-DPro-Phe-Arg-AFC, IC50 assay); conditions: substrate H-DPro-Phe-Arg-AFC at Km, 25° C.; class scale A-G
How it was run: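 Human FXIIa incubated at 25° C with fluorogenic substrate H-DPro-Phe-Arg-AFC at its Km concentration and varying compound concentrations. Fluorescence release monitored over 5 min at 25° C; linear rate expressed as % of uninhibited activity to derive IC50.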

[2] = target: KLK1 (Homo sapiens (Human), UniProt P06870); test: Determination of related protease inhibition: KLK1 (fluorogenic substrate at Km); conditions: 25° C.
Chain of KLK1 (P06870 25-262): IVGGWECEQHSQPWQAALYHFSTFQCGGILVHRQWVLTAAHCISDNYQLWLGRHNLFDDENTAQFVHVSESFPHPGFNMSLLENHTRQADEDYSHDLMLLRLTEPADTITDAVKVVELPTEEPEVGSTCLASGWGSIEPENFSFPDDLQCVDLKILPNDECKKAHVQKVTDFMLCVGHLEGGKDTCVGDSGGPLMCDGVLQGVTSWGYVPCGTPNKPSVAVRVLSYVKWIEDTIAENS
How it was run: (§1)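 Human enzyme incubated with test compound over a concentration range and a fluorogenic substrate at its Km concentration. Liberated fluorescence monitored over 5 min at 25 °C; linear rate per minute expressed as % of uninhibited activity, and IC50 taken as the concentration giving 50% inhibition.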

[3] = target: Plasma Kallikrein (Homo sapiens (Human), UniProt P03952); test: Determination of related protease inhibition: Plasma Kallikrein (fluorogenic substrate at Km); conditions: 25° C., read-out: IC50 (human PKal)
Chain of Plasma Kallikrein (P03952 391-638): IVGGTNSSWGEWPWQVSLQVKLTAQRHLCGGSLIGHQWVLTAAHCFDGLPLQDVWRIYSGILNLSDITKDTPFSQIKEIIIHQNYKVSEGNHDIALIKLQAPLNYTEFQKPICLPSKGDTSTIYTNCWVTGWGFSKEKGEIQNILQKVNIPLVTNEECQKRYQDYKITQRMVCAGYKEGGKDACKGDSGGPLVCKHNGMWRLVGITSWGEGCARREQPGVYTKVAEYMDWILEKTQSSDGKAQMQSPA
Chain of Plasma Kallikrein (P03952 20-390 partner): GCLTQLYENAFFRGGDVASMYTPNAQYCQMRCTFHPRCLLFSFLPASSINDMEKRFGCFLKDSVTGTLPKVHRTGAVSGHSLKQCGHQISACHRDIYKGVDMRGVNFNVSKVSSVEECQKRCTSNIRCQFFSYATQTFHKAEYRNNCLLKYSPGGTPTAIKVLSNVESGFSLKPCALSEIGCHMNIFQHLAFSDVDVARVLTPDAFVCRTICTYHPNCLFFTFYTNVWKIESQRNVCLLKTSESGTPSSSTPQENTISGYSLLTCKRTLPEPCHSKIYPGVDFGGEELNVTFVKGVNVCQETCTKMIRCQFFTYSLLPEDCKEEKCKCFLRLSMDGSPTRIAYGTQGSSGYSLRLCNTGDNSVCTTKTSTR
How it was run: as §1

[4] = target: Thrombin (Homo sapiens (Human), UniProt P00734); test: Determination of related protease inhibition: Thrombin (fluorogenic substrate at Km); conditions: 25° C.
How it was run: as §1

[5] = target: FXIa (Homo sapiens (Human), UniProt P03951); test: Determination of related protease inhibition: FXIa (fixed substrate concentration of 100 μM); conditions: 25° C.
Chain of FXIa (P03951 388-625): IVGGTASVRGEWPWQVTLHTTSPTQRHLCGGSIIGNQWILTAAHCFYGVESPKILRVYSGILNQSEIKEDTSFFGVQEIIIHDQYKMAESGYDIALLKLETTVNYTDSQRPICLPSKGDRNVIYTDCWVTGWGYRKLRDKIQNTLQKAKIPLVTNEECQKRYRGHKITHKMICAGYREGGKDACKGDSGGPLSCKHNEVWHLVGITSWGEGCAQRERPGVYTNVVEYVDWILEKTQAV
Chain of FXIa (P03951 19-387 partner): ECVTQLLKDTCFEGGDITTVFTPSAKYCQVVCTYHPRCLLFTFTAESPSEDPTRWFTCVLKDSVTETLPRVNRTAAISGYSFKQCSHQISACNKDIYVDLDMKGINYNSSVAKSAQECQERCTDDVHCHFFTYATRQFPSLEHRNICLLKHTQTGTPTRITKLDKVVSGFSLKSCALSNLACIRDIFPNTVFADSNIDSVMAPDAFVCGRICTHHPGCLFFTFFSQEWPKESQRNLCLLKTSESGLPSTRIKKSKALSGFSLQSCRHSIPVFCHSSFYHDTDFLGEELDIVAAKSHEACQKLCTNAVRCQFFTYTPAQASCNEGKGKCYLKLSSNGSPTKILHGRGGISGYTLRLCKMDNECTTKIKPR
Description: Determination of Related Protease Inhibition
In vitro inhibition of related proteases was determined using an ([…] assay based on standard literature methods (see e.g. Shori et al., Biochem. Pharmacol., 1992, 43, 1209; Bouckaert et al., European Journal of Medicinal Chemistry 110 (2016) 181). Human serine protease enzymes Plasma Kallikrein, KLK1, FXa, Plasmin, Thrombin and Trypsin were assayed for enzymatic activity using an appropriate fluorogenic substrate at Km concentration, FXIa at fixed substrate concentration of 100 μM, and various concentrations of the test compound. Protease activity was measured by monitoring the accumulation of liberated fluorescence from the substrate over […]. The linear rate of fluorescence increase per minute was expressed as percentage (%) activity. IC50 values were calculated as the concentration of inhibitor giving 50% inhibition of the uninhibited enzyme activity (100%).

[6] = target: FXa (Homo sapiens (Human), UniProt P00742); test: Determination of related protease inhibition: FXa (fluorogenic substrate at Km); conditions: 25° C.
Chain of FXa (P00742 235-488): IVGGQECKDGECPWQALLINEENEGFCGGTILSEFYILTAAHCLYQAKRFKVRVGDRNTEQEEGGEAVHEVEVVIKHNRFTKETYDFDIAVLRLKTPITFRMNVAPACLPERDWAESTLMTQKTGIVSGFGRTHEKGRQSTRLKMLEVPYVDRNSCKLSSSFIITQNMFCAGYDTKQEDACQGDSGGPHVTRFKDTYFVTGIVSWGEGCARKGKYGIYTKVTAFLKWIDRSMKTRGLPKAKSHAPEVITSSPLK
Chain of FXa (P00742 41-179 partner): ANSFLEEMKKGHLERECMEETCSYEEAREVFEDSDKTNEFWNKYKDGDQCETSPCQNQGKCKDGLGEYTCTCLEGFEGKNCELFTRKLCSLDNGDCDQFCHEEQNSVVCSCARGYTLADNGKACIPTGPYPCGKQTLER
How it was run: as §1

Chain of Human Factor XIIa (P00748 373-615): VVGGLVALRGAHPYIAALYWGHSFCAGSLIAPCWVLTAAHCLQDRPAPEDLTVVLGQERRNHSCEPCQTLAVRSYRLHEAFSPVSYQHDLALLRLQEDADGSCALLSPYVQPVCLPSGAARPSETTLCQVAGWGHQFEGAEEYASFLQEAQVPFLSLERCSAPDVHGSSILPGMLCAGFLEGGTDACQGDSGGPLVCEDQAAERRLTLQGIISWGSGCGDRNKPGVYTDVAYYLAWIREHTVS

| IC50 [1] [µM] | IC50 [2] [µM] | IC50 [3] [µM] | IC50 [4] [µM] | IC50 [5] [µM] | IC50 [6] [µM] | Compound |
| --- | --- | --- | --- | --- | --- | --- |
| 0.01 to 0.1 | 3 to 10 | > 40 | > 40 | 10 to 40 |  | Nc1nccc2c(NCc3ccnc(OCC4CCn5ccnc5C4)c3)cccc12 (centres unmarked) [Example 4298, N5-((2-((5,6,7,8-tetrahydroimidazo[1,2-a]pyridin-7-yl)methoxy)pyridin-4-yl)methyl)isoquinoline-1,5-diamine] |
| 1 to 3 |  | 10 to 40 | 10 to 40 | > 40 | 10 to 40 | CN1CCC(OCc2ccc(CNc3ccc4c(N)nccc4c3)cc2)C(F)(F)C1 (centres unmarked) [Example 2194, N6-(4-(((3,3-difluoro-1-methylpiperidin-4-yl)oxy)methyl)benzyl)isoquinoline-1,6-diamine] |
| 0.01 to 0.1 |  | 3 to 10 | 3 to 10 | > 20 | 0.3 to 1 | CN1CCC(COc2cc(CNc3ccc4c(N)nccc4c3)ccn2)CC1 [Example 4261, N6-((2-((1-methylpiperidin-4-yl)methoxy)pyridin-4-yl)methyl)isoquinoline-1,6-diamine] |
| 0.1 to 0.3 |  | 3 to 10 | 10 to 40 | > 40 | 3 to 10 | CN1CCC(COc2ccc(CNc3ccc4c(N)nccc4c3)cn2)CC1 [Example 1005, N6-((6-((1-methylpiperidin-4-yl)methoxy)pyridin-3-yl)methyl)isoquinoline-1,6-diamine] |
| 0.01 to 0.1 |  | 10 to 40 | > 20 | > 20 | > 20 | CCN1CCC(OCc2ccc(CNc3cccc4c(N)nccc34)c(F)c2)CC1 [Example 2201, 5-N-[(4-{[(1-ethylpiperidin-4-yl)oxy]methyl}-2-fluorophenyl)methyl]isoquinoline-1,5-diamine] |
| 0.1 to 0.3 |  | 3 to 10 | 3 to 10 | > 40 | 1 to 3 | CN1CCC(OCc2ccc(CNc3ccc4c(N)nccc4c3)c(Cl)c2)CC1 [Example 2192, N6-(2-chloro-4-(((1-methylpiperidin-4-yl)oxy)methyl)benzyl)isoquinoline-1,6-diamine] |
| 0.01 to 0.1 |  | 3 to 10 | 10 to 40 | > 20 | 3 to 10 | CN1CC2C[C@@H]1C[C@H]2OCc1ccc(CNc2ccc3c(N)nccc3c2)c(F)c1 (single isomer, unassigned) [Example 2199, N6-(2-fluoro-4-((((4R*,5R*)-2-methyl-2-azabicyclo[2.2.1]heptan-5-yl)oxy)methyl)benzyl)isoquinoline-1,6-diamine] |
| 3 to 10 |  | > 20 | > 20 | > 20 | > 20 | CN1CCC(OCc2ccc(CNc3ccc4cnccc4c3)cc2)CC1 [Example 2193, N-(4-(((1-methylpiperidin-4-yl)oxy)methyl)benzyl)isoquinolin-6-amine] |
| 0.3 to 1 | 3 to 10 | 10 to 40 | 10 to 40 | > 40 | > 40 | CC(C)N1CC2(CN(Cc3ccc(CNc4ccc5c(N)nccc5c4)c(F)c3)C2)C1 [Example 1037, 6-N-{[2-fluoro-4-({6-isopropyl-2,6-diazaspiro[3.3]heptan-2-yl}methyl)phenyl]methyl}isoquinoline-1,6-diamine] |
| 0.1 to 0.3 |  | 1 to 3 | 3 to 10 | > 20 | 3 to 10 | CCN1CCC(OCc2ccc(CNc3ccc4c(N)nccc4c3)c(F)c2)CC1 [Example 2202, 6-N-[(4-{[(1-ethylpiperidin-4-yl)oxy]methyl}-2-fluorophenyl)methyl]isoquinoline-1,6-diamine] |
| 0.1 to 0.3 |  | 1 to 3 | 3 to 10 | > 20 | 10 to 40 | CC(C)N1CCC(COc2ccc(CNc3ccc4c(N)nccc4c3)cn2)CC1 [Example 1012, N6-((6-((1-isopropylpiperidin-4-yl)methoxy)pyridin-3-yl)methyl)isoquinoline-1,6-diamine] |
| 0.1 to 0.3 | 10 to 40 | 10 to 40 | > 40 | > 40 | > 40 | CC(C)N1C[C@H]2C[C@@H]1CN2CCc1ccc(CNc2cccc3c(N)nccc23)c(F)c1 (stereo in doubt) [Example 2213, N5-[[2-fluoro-4-[2-[(1R,4R)-5-isopropyl-2,5-diazabicyclo[2.2.1]heptan-2-yl]ethyl]phenyl]methyl]isoquinoline-1,5-diamine] |
| 0.1 to 0.3 |  | 1 to 3 | 3 to 10 | > 40 | 3 to 10 | CN1CCC(CCc2ccc(CNc3ccc4c(N)nccc4c3)cc2)CC1 [Example 2177, N6-(4-(2-(1-methylpiperidin-4-yl)ethyl)benzyl)isoquinoline-1,6-diamine] |
| 0.3 to 1 |  | 3 to 10 | 3 to 10 | > 20 | 3 to 10 | CN1CCC(CCn2cc(CNc3ccc4c(N)nccc4c3)cn2)CC1 [Example 3254, N6-((1-(2-(1-methylpiperidin-4-yl)ethyl)-1H-pyrazol-4-yl)methyl)isoquinoline-1,6-diamine] |
| 0.1 to 0.3 |  | 3 to 10 | 3 to 10 | > 20 | 3 to 10 | CN1CCC(COc2ncc(CNc3ccc4c(N)nccc4c3)cn2)CC1 [Example 1013, 6-N-({2-[(1-methylpiperidin-4-yl)methoxy]pyrimidin-5-yl}methyl)isoquinoline-1,6-diamine] |
| 1 to 3 |  | 1 to 3 | 1 to 3 | > 40 | 1 to 3 | Nc1nccc2cc(NCc3ccnc(-c4cccc(CN5CCCC5)c4)c3)ccc12 [Example 5434, N6-((2-(3-(pyrrolidin-1-ylmethyl)phenyl)pyridin-4-yl)methyl)isoquinoline-1,6-diamine] |
| 0.1 to 0.3 |  | 3 to 10 | 10 to 40 | > 40 | 10 to 40 | CCN1CCC(COc2ccc(CNc3ccc4c(N)nccc4c3)cn2)CC1 [Example 1010, 6-N-({6-[(1-ethylpiperidin-4-yl)methoxy]pyridin-3-yl}methyl)isoquinoline-1,6-diamine] |
| 3 to 10 |  | 10 to 40 | > 20 | > 20 | > 20 | CN1CCC(COc2ccc(CNc3ccc4cnccc4c3)cn2)CC1 [Example 1008, N-((6-((1-methylpiperidin-4-yl)methoxy)pyridin-3-yl)methyl)isoquinolin-6-amine] |
